Experimental data: ChEMBL document CHEMBL1156922, “Interaction between double helix DNA fragments and the new antitumor agent sabarubicin, Men10755” (Bioorg Med Chem, 2010)

Tests used:
Nucleic Acid [1] = assay: Binding affinity to d(CGTACG)2 assessed as average residence time; format: nucleic-acid assay
Nucleic Acid [2] = assay: Binding affinity to d(CGATCG)2 assessed as average residence time; format: nucleic-acid assay

| SMILES | TIME (Nucleic Acid [1]) | TIME (Nucleic Acid [2]) |
| --- | --- | --- |
| C[C@@H]1O[C@@H](O[C@@H]2[C@H](C)O[C@@H](O[C@H]3C[C@](O)(C(=O)CO)Cc4c(O)c5c(c(O)c43)C(=O)c3ccccc3C5=O)C[C@@H]2O)C[C@H](N)[C@@H]1O | 5.83e-05 h | 0.000131 h |
| CC(=O)[C@]1(O)Cc2c(O)c3c(c(O)c2[C@@H](O[C@H]2C[C@H](O)[C@H](O[C@H]4C[C@H](N)[C@H](O)[C@H](C)O4)[C@H](C)O2)C1)C(=O)c1ccccc1C3=O | 5e-05 h | 5e-05 h |
| COc1cccc2c1C(=O)c1c(O)c3c(c(O)c1C2=O)C[C@@](O)(C(=O)CO)C[C@@H]3O[C@H]1C[C@H](N)[C@H](O)[C@H](C)O1 | 0.000347 h | 0.000231 h |
| COc1cccc2c1C(=O)c1c(O)c3c(c(O)c1C2=O)C[C@@](O)(C(=O)CO)C[C@@H]3O[C@H]1C[C@H](N2CCO[C@H](OC)C2)[C@H](O)[C@H](C)O1 | 0.00139 h |  |
